# In patent publication US20100172854A1, “ANTIBACTERIAL FORMULATIONS” (priority 2007, published 2010):
# Columns and labels:
# [1] = test system: tumour; settings: compound isolated from Aspergillus fumigatus, believed to be Antioxidant 2246; cited from earlier work
# [2] = test system: Propionibacterium acnes NCTC 737; experiment: MBC assay; assay type: cell-based; settings: P. acnes NCTC 737
# Experimental: The propionibacteria were cultured and maintained on Wilkins-Chalgren Anaerobe Medium (agar and broth) at pH 6.0; all cultures were incubated anaerobically at 37° C. for 72 hours.
# This assay, normally carried out after an MIC assay, determines the minimum concentration of a compound that is lethal to the micro-organism being tested.
# These samples were then individually sub-cultured on antibiotic-free agar medium, under the incubation conditions described above. Following incubation they were examined visually for microbial growth.
# [3] = test system: Porphyromonas gingivalis NCTC 11834; experiment: MIC assay; assay type: cell-based; settings: NCTC11834
# Experimental: (§1) The P. gingivalis strains were cultured and maintained on Wilkins-Chalgren Anaerobe Medium (agar and broth) at pH 7.0; all cultures were incubated anaerobically at 37° C. for 5-7 days.
# (§2) This is a standard international method for quantitatively assessing the antimicrobial activity of a compound in a liquid medium. The method used a sterile 96-well microtitre plate, capable of holding about 200 μl of liquid per well. The wells contained liquid culture medium and ranges of decreasing concentrations of the relevant test compound in doubling dilutions (e.g. 1000, 500, 250, 125 . . . μg/ml, etc. down to 0.49 μg/ml). The culture media were as described above.
# (§3) The wells were inoculated with a liquid suspension of freshly grown micro-organism and incubated under the conditions described above. After incubation, the microtitre plate was examined visually (with the aid of a light box) for cloudiness in each well, which would indicate microbial growth. The MIC value was recorded as the lowest concentration of test compound required to inhibit microbial growth, i.e. the lowest concentration for which the liquid in the well remained clear.
# (§4) The assays included both negative (culture medium with no micro-organisms) and positive (culture medium plus diluting solvent plus micro-organism) controls.
# [4] = test system: Porphyromonas gingivalis ATCC 53978; experiment: MIC assay; assay type: cell-based; settings: ATCC53978
# Experimental: as §1, §2, §3, §4
# [5] = test system: Porphyromonas gingivalis ATCC BAA-308; experiment: MIC assay; assay type: cell-based; settings: ATCCBAA308
# Experimental: as §1, §2, §3, §4
# [6] = test system: S. aureus CPHL EMRSA 15; experiment: MIC assay; assay type: cell-based; settings: Staphylococcus aureus
# Experimental: (§5) The staphylococci were cultured and maintained on Mueller-Hinton Medium (agar and broth) at pH 7.2; cultures were incubated aerobically at 37° C. for 19-20 hours.
# as §2, §3, §4
# [7] = test system: S. aureus ATCC 12604; experiment: MIC assay; assay type: cell-based; settings: Staphylococcus aureus, ATCC12604
# Experimental: as §5, §2, §3, §4
# [8] = test system: S. aureus NCTC 12981; experiment: MIC assay; assay type: cell-based; settings: Staphylococcus aureus, NCTC12981
# Experimental: as §5, §2, §3, §4
# [9] = test system: S. aureus ATCC 12602; experiment: MIC assay; assay type: cell-based; settings: Staphylococcus aureus, ATCC12602
# Experimental: as §5, §2, §3, §4
# [10] = test system: Staphylococcus cohnii ATCC 29974; experiment: MIC assay; assay type: cell-based; settings: ATCC29974
# Experimental: as §5, §2, §3, §4
# [11] = test system: S. aureus CPHL EMRSA 16; experiment: MIC assay; assay type: cell-based; settings: Staphylococcus aureus
# Experimental: as §5, §2, §3, §4
# [12] = test system: S. aureus CPHL EMRSA 17; experiment: MIC assay; assay type: cell-based; settings: Staphylococcus aureus
# Experimental: as §5, §2, §3, §4
# [13] = test system: Staphylococcus haemolyticus ATCC 29970; experiment: MIC assay; assay type: cell-based; settings: ATCC29970
# Experimental: as §5, §2, §3, §4
# [14] = test system: Staphylococcus aureus ATCC 29213; experiment: MIC assay; assay type: cell-based; settings: ATCC29213, S. aureus ATCC 29213
# Experimental: as §5, §2, §3, §4
# [15] = test system: S. aureus NCTC 12493; experiment: MIC assay; assay type: cell-based; settings: Staphylococcus aureus, NCTC12493, resistance phenotype Met
# Experimental: as §5, §2, §3, §4
# [16] = test system: Staphylococcus capitis ATCC 27840; experiment: MIC assay; assay type: cell-based; settings: ATCC27840
# Experimental: as §5, §2, §3, §4
# [17] = test system: S. saprophyticus NCTC 7292; experiment: MIC assay; assay type: cell-based; settings: Staphylococcus saprophyticus, NCTC7292
# Experimental: as §5, §2, §3, §4
# [18] = test system: S. aureus CPHL GISA HO41340156; experiment: MIC assay; assay type: cell-based; settings: Staphylococcus aureus
# Experimental: as §5, §2, §3, §4
# [19] = test system: Staphylococcus aureus ATCC 12600; experiment: MIC assay; assay type: cell-based; settings: ATCC12600
# Experimental: as §5, §2, §3, §4
# [20] = test system: S. aureus ATCC 12606; experiment: MIC assay; assay type: cell-based; settings: Staphylococcus aureus, ATCC12606
# Experimental: as §5, §2, §3, §4
# [21] = test system: S. aureus ATCC 12605; experiment: MIC assay; assay type: cell-based; settings: Staphylococcus aureus, ATCC12605
# Experimental: as §5, §2, §3, §4
# [22] = test system: S. aureus ATCC 25923; experiment: MIC assay; assay type: cell-based; settings: Staphylococcus aureus, ATCC25923
# Experimental: as §5, §2, §3, §4
# [23] = test system: Staphylococcus auricularis ATCC 33753; experiment: MIC assay; assay type: cell-based; settings: ATCC33753
# Experimental: as §5, §2, §3, §4
# [24] = test system: Staphylococcus warneri ATCC 27836; experiment: MIC assay; assay type: cell-based; settings: ATCC27836
# Experimental: as §5, §2, §3, §4
# [25] = test system: Staphylococcus xylosus ATCC 29971; experiment: MIC assay; assay type: cell-based; settings: ATCC29971
# Experimental: as §5, §2, §3, §4
# [26] = test system: Staphylococcus hominis ATCC 27844; experiment: MIC assay; assay type: cell-based; settings: ATCC27844
# Experimental: as §5, §2, §3, §4
# [27] = test system: S. aureus CPHL VISA Mu3; experiment: MIC assay; assay type: cell-based; settings: Staphylococcus aureus
# Experimental: as §5, §2, §3, §4
# [28] = test system: S. aureus ATCC 12607; experiment: MIC assay; assay type: cell-based; settings: Staphylococcus aureus, ATCC12607
# Experimental: as §5, §2, §3, §4
# [29] = test system: S. aureus ATCC 12600-U; experiment: MIC assay; assay type: cell-based; settings: Staphylococcus aureus, ATCC12600
# Experimental: as §5, §2, §3, §4
# [30] = test system: Staphylococcus simulans ATCC 27848; experiment: MIC assay; assay type: cell-based; settings: ATCC27848
# Experimental: as §5, §2, §3, §4
smiles,measurement,setting,value
"Cc1cc(Cc2cc(C)cc(C(C)(C)C)c2O)c(O)c(C(C)(C)C)c1 [AO 2246, 2,2′-methylene-bis(4-methyl-6-tert-butylphenol)]",anti-tumour activity,[1],anti-tumour activity
same,MBC,"[2]; Cutibacterium acnes, NCTC737",15.6 µg/mL
same,MIC/MBC Ratio,[2],0.25
same,MIC,[3],3.9 µg/mL
same,MIC,[4],0.98 µg/mL
same,MIC,[5],3.9 µg/mL
same,MIC,[6],1.95 µg/mL
same,MIC,[7],1.95 µg/mL
same,MIC,[8],1.95 µg/mL
same,MIC,[9],1.95 µg/mL
same,MIC,[10],3.9 µg/mL
same,MIC,[11],1.95 µg/mL
same,MIC,[12],1.95 µg/mL
same,MIC,[13],3.9 µg/mL
same,MIC,[14],3.9 µg/mL
same,MIC,[15],0.98 µg/mL
same,MIC,[16],3.9 µg/mL
same,MIC,[17],3.9 µg/mL
same,MIC,[18],1.95 µg/mL
same,MIC,[19],0.98 µg/mL
same,MIC,[20],1.95 µg/mL
same,MIC,[21],1.95 µg/mL
same,MIC,[22],7.8 µg/mL
same,MIC,[23],1.95 µg/mL
same,MIC,[24],15.6 µg/mL
same,MIC,[25],3.9 µg/mL
same,MIC,[26],7.8 µg/mL
same,MIC,[27],1.95 µg/mL
same,MIC,[28],1.95 µg/mL
same,MIC,[29],0.98 µg/mL
same,MIC,[30],15.6 µg/mL
